Test results as given in article doi:10.1101/212837v1 (biorxiv, 2017).

Target: GAA (human acid α-glucosidase; rhGAA) (Homo sapiens, UniProt P10253)
Type: biochemical

Ki: 5.8 ± 0.6 mM
SMILES: OC[C@H]1OC(O)[C@H](O)[C@@H](O)[C@@H]1O (mixture of isomers) [glucose]
